Laboratory results from article PMC11167047 (Cell Death Discovery, 2024).

How the values were obtained:
Assay in all cases: kinome screen (33PanQinase)
Format in all cases: biochemical
AuroraA = biological target: T1, AuroraA (Homo sapiens, UniProt O14965)
T1 construct: purchased Reaction Biology Europe GmbH (formerly ProQinase)
T1 sequence (O14965 1-403): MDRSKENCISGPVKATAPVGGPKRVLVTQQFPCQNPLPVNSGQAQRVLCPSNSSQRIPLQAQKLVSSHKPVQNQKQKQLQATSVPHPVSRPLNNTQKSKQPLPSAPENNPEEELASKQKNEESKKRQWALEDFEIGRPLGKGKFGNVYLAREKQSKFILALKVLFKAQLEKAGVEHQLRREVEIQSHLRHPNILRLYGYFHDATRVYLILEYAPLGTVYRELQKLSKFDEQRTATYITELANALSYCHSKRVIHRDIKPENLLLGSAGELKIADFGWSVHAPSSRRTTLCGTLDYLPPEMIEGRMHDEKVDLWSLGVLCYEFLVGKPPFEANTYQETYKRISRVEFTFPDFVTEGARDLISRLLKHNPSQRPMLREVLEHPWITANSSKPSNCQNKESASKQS
Protocol: (§1) The Kinome Screening was performed by Reaction Biology Europe GmbH (http://reactionbiology.com; Freiburg i. Br., Germany).

SIK2 = biological target: T2, SIK2 (Homo sapiens, UniProt Q9H0K1)
T2 construct: purchased Reaction Biology Europe GmbH (formerly ProQinase)
Protocol: as §1

CDK9/CycT1 = biological target: T3, CDK9/CycT1 (Homo sapiens, UniProt P50750)
T3 construct: purchased Reaction Biology Europe GmbH (formerly ProQinase)
Protocol: as §1

ROS = biological target: T4, ROS (Homo sapiens, UniProt P08922)
T4 construct: purchased Reaction Biology Europe GmbH (formerly ProQinase)
Protocol: as §1

BMPR1A = biological target: T5, BMPR1A (Homo sapiens, UniProt P36894)
T5 construct: purchased Reaction Biology Europe GmbH (formerly ProQinase)
Protocol: as §1

MAP3K10 = biological target: T6, MAP3K10 (Homo sapiens, UniProt Q02779)
T6 construct: purchased Reaction Biology Europe GmbH (formerly ProQinase)
Protocol: as §1

CDK6/CycD1 = biological target: T7, CDK6/CycD1 (Homo sapiens, UniProt Q00534)
T7 construct: purchased Reaction Biology Europe GmbH (formerly ProQinase)
Protocol: as §1

JAK2 = biological target: T8, JAK2 (Homo sapiens, UniProt O60674)
T8 construct: purchased Reaction Biology Europe GmbH (formerly ProQinase)
Protocol: as §1

TLK1 = biological target: T9, TLK1 (Homo sapiens, UniProt Q9UKI8)
T9 construct: purchased Reaction Biology Europe GmbH (formerly ProQinase)
T9 sequence (Q9UKI8 1-766): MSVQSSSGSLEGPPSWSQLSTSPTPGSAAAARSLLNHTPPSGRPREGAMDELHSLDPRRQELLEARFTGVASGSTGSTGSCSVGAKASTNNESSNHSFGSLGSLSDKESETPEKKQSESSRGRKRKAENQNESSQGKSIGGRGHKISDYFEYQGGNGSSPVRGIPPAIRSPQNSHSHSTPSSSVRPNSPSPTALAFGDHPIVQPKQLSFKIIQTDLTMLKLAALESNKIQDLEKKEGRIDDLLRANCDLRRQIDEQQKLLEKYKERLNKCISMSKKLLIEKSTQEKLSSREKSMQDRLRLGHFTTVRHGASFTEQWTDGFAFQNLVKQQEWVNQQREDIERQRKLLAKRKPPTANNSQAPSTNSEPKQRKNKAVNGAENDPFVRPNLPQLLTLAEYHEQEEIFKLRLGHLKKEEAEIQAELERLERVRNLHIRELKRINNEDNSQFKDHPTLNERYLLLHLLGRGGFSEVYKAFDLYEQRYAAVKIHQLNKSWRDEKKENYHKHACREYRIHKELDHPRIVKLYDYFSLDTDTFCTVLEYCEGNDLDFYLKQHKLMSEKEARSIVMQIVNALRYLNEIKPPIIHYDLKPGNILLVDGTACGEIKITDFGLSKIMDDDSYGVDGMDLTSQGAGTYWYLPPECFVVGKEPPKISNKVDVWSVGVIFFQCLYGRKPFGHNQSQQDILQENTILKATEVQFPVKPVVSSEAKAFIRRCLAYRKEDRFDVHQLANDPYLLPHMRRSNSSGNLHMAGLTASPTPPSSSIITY
Protocol: as §1

RET = biological target: T10, RET (Homo sapiens, UniProt P07949)
T10 construct: purchased Reaction Biology Europe GmbH (formerly ProQinase)
Protocol: as §1

MARK4 = biological target: T11, MARK4 (Homo sapiens, UniProt Q96L34)
T11 construct: purchased Reaction Biology Europe GmbH (formerly ProQinase)
T11 sequence (Q96L34 1-752): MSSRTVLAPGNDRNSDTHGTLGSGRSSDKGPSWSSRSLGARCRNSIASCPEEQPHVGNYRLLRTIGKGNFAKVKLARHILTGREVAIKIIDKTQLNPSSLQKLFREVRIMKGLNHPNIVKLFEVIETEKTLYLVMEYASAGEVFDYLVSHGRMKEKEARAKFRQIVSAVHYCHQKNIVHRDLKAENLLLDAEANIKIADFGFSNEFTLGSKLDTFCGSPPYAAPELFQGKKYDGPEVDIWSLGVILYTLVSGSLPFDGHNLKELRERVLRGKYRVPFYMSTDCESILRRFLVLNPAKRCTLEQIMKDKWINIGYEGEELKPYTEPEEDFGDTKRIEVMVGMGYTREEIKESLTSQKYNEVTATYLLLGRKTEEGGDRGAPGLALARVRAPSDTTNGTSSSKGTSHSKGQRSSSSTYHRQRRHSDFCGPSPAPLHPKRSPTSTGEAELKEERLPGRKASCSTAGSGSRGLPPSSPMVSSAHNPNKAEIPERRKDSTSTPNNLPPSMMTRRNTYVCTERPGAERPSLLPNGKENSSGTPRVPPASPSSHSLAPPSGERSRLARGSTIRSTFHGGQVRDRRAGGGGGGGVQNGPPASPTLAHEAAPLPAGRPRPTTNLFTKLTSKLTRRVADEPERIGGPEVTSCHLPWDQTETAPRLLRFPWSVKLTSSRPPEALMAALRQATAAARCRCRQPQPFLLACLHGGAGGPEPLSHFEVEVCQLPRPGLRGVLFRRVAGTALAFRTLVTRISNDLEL
Protocol: as §1

T6 sequence (Q02779 whole entry): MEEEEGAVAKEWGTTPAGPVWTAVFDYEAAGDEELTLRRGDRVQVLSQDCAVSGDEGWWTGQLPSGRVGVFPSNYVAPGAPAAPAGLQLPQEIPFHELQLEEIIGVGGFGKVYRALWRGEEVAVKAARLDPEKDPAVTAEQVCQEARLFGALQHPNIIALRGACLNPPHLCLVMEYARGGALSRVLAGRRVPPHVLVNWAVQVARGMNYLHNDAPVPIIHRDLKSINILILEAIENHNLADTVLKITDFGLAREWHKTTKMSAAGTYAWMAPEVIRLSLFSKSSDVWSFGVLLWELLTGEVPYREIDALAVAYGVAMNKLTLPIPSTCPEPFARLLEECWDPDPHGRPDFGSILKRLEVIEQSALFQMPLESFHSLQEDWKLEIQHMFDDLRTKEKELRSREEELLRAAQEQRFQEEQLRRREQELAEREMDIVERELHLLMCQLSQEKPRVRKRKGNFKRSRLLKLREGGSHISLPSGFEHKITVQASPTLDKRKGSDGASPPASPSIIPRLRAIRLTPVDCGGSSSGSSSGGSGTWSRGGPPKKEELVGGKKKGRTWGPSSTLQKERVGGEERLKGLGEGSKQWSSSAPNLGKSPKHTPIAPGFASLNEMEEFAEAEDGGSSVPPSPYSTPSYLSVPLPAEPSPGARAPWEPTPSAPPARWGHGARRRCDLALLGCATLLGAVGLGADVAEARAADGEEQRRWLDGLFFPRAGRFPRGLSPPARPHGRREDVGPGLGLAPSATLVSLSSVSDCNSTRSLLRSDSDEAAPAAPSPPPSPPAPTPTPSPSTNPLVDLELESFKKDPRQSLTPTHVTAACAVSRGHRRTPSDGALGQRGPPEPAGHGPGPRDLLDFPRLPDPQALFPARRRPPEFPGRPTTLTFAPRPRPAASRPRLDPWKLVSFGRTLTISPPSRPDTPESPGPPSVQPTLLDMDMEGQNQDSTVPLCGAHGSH
T7 sequence (Q00534 whole entry): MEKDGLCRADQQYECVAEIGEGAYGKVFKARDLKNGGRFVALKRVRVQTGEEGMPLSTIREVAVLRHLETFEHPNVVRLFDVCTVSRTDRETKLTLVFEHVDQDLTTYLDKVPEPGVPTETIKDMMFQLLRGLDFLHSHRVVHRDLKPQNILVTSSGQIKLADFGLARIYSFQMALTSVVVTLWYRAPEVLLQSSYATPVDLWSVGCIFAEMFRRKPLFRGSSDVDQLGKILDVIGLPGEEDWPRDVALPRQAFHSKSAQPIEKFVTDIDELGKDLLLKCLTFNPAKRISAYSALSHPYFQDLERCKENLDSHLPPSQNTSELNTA
T7 sequence (P24385 whole entry partner): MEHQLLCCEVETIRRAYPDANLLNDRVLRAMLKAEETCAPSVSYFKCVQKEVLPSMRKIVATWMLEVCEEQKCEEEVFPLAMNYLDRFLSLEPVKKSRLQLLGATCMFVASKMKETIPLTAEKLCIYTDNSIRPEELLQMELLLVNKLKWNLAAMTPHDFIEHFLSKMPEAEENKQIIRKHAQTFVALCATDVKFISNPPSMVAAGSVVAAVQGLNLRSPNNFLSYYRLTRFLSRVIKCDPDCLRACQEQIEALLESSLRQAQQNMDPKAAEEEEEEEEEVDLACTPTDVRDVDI
T3 sequence (P50750 whole entry): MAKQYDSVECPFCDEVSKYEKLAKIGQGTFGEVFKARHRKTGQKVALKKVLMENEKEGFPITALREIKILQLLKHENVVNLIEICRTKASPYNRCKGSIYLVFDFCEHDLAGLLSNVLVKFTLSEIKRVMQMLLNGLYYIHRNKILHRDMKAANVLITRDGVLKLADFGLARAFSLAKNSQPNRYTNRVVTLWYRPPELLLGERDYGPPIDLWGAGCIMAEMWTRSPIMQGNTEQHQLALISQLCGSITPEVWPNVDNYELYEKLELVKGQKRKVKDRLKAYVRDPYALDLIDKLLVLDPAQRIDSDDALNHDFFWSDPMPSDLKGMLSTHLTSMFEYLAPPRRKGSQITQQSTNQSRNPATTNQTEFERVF
T3 sequence (O60563 whole entry partner): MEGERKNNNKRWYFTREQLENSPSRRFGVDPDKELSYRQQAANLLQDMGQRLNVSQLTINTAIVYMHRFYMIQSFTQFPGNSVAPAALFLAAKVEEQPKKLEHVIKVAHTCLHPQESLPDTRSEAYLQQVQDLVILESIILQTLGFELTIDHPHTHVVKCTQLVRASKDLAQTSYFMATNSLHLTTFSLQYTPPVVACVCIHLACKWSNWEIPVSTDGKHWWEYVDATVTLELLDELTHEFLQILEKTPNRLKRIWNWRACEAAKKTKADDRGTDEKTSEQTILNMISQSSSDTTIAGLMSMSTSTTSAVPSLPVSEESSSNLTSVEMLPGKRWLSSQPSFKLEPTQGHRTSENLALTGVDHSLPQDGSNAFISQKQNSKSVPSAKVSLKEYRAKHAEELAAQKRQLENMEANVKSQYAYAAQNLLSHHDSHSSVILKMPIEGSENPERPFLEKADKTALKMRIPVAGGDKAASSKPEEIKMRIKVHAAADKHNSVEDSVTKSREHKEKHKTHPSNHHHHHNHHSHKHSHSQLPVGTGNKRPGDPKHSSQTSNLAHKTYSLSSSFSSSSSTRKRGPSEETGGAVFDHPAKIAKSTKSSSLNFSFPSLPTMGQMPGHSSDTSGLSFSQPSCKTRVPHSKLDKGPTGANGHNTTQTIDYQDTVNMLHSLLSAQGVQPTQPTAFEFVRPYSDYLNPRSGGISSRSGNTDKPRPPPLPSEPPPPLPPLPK
T8 sequence (O60674 whole entry): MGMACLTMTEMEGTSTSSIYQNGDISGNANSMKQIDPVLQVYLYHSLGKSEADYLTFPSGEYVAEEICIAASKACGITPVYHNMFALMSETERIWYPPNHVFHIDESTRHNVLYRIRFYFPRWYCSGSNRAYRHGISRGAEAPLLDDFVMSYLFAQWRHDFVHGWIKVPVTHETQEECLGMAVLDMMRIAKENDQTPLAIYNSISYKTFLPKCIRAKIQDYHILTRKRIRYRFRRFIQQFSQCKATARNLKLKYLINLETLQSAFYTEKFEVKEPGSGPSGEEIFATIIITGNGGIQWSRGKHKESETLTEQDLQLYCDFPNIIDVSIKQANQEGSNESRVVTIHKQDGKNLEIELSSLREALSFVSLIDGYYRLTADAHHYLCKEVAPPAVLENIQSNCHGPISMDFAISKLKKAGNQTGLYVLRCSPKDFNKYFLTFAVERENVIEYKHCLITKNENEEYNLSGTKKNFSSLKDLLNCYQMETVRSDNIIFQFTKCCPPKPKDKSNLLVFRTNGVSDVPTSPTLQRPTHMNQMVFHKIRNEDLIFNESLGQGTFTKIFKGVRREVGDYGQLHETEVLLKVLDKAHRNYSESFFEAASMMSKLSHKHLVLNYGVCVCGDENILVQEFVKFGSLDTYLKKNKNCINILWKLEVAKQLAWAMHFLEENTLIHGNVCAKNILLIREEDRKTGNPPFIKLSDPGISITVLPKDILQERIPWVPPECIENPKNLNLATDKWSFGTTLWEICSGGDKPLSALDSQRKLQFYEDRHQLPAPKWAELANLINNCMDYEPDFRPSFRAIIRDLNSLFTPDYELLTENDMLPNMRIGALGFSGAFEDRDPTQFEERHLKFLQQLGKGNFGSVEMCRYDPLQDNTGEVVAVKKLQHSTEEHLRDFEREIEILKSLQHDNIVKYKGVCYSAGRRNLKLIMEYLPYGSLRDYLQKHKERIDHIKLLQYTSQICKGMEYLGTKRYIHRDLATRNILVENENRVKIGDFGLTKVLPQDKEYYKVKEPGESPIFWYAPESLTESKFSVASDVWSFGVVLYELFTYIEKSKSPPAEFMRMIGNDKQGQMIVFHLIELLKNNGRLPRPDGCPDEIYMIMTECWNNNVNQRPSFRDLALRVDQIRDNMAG
T2 sequence (Q9H0K1 whole entry): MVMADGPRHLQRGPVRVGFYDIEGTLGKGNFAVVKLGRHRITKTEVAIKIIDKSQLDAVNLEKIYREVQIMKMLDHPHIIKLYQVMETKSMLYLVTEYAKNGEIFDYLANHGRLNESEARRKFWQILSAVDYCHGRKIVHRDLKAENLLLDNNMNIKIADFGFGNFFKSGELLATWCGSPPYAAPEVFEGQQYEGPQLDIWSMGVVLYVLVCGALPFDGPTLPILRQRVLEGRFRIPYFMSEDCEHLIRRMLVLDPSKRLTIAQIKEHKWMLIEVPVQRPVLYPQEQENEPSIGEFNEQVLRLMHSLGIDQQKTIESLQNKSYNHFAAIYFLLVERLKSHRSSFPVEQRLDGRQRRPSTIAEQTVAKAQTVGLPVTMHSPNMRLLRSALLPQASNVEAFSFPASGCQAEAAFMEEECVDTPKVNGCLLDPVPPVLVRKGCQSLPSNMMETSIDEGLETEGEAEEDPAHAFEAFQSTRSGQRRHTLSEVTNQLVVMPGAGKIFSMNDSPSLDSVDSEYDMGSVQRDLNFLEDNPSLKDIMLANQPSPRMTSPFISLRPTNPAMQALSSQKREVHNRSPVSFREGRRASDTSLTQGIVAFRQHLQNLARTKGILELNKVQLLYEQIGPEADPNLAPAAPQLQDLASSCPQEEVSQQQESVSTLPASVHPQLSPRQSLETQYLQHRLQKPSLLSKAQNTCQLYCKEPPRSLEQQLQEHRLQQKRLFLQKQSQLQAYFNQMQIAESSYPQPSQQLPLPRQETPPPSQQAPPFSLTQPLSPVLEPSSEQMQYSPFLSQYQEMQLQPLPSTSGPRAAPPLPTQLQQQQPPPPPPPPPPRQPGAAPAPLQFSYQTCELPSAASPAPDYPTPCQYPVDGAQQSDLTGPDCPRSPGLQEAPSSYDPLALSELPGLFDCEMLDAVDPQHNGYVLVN

Compound: COc1ccnc2[nH]cc(-c3cc(N)nc(N)c3)c12 [meriolin 16]
- residual kinase activity (AuroraA; 0.03 µM): 109 % of control
- residual kinase activity (AuroraA; 0.3 µM): 107 % of control
- residual kinase activity (SIK2; 0.03 µM): 96 % of control
- residual kinase activity (SIK2; 0.3 µM): 102 % of control
- residual kinase activity (CDK9/CycT1; 0.03 µM): 13 % of control
- residual kinase activity (CDK9/CycT1; 0.3 µM): 2 % of control
- residual kinase activity (ROS; 0.03 µM): 92 % of control
- residual kinase activity (ROS; 0.3 µM): 81 % of control
- residual kinase activity (BMPR1A; 0.03 µM): 94 % of control
- residual kinase activity (BMPR1A; 0.3 µM): 94 % of control
- residual kinase activity (MAP3K10; 0.03 µM): 99 % of control
- residual kinase activity (MAP3K10; 0.3 µM): 76 % of control
- residual kinase activity (CDK6/CycD1; 0.03 µM): 93 % of control
- residual kinase activity (CDK6/CycD1; 0.3 µM): 51 % of control
- residual kinase activity (JAK2; 0.03 µM): 102 % of control
- residual kinase activity (JAK2; 0.3 µM): 80 % of control
- residual kinase activity (TLK1; 0.03 µM): 98 % of control
- residual kinase activity (TLK1; 0.3 µM): 89 % of control
- residual kinase activity (RET; 0.03 µM): 106 % of control
- residual kinase activity (RET; 0.3 µM): 100 % of control
- residual kinase activity (MARK4; 0.03 µM): 99 % of control
- residual kinase activity (MARK4; 0.3 µM): 91 % of control

Compound: c1ccc(CNc2cc(-c3c[nH]c4ncccc34)ccn2)cc1 [meriolin 36]
- residual kinase activity (AuroraA; 0.3 µM): 81 % of control
- residual kinase activity (AuroraA; 3 µM): 35 % of control
- residual kinase activity (SIK2; 0.3 µM): 86 % of control
- residual kinase activity (SIK2; 3 µM): 27 % of control
- residual kinase activity (CDK9/CycT1; 0.3 µM): 1 % of control
- residual kinase activity (CDK9/CycT1; 3 µM): 0 % of control
- residual kinase activity (ROS; 0.3 µM): 26 % of control
- residual kinase activity (ROS; 3 µM): 5 % of control
- residual kinase activity (BMPR1A; 0.3 µM): 105 % of control
- residual kinase activity (BMPR1A; 3 µM): 61 % of control
- residual kinase activity (MAP3K10; 0.3 µM): 50 % of control
- residual kinase activity (MAP3K10; 3 µM): 9 % of control
- residual kinase activity (CDK6/CycD1; 0.3 µM): 2 % of control
- residual kinase activity (CDK6/CycD1; 3 µM): 1 % of control
- residual kinase activity (JAK2; 0.3 µM): 40 % of control
- residual kinase activity (JAK2; 3 µM): 8 % of control
- residual kinase activity (TLK1; 0.3 µM): 119 % of control
- residual kinase activity (TLK1; 3 µM): 106 % of control
- residual kinase activity (RET; 0.3 µM): 61 % of control
- residual kinase activity (RET; 3 µM): 12 % of control
- residual kinase activity (MARK4; 0.3 µM): 90 % of control
- residual kinase activity (MARK4; 3 µM): 54 % of control
